Reference: publication PMC10823514, “Target Identification of a Class of Pyrazolone Protein Aggregation Inhibitor Therapeutics for Amyotrophic Lateral Sclerosis” (ACS Central Science, 2023)

Target: T1, 25 kDa protein band in PC12 SOD1^G93A cells (Rattus norvegicus, UniProt P62260)
T1 construct: we identified a 25 kDa covalently modified protein band in the PC12 SOD1^G93A cell line; endogenous in cells; host or cells: PC12-SOD1^G93A cells (live-cell UV photolabeling, then lysis)
T1 sequence (P62260 1-255): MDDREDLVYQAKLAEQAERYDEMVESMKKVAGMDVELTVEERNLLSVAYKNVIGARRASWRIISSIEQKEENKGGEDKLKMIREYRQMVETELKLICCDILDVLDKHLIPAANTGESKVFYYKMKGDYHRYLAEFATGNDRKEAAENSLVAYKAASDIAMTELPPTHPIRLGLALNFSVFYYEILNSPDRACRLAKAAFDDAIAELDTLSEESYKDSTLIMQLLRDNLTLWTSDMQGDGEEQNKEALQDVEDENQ
Test: Competition of PRAPP photoaffinity labeling of the 25 kDa band in PC12-SOD1^G93A cells
Assay type: binding
Conditions: 30 μM PRAPP
Protocol: PC12-SOD1^G93A cells were cultured and grown to 90% confluency (in 6-well plates) and washed once with PBS followed by the addition of serum medium containing the appropriate analyte at the indicated concentrations. Three incubation scenarios were studied (at 37 °C): Scenario 1) 12 h preincubation with PRAPP in the absence of MG-132; Scenario 2) 12 h preincubation with PRAPP in the absence of MG-132 followed by an additional 24 h incubation (control); and Scenario 3) 12 h preincubation with PRAPP followed by the addition of MG-132 (100 nM) and an additional 24 h incubation. After incubation, the medium was discarded and cells were washed with PBS (1 × 300 μL). Fresh serum-free medium was added, and the cells were irradiated with UV light (312 nm, 120 V, 60 Hz, 0.2 A [Spectroline model EB-160C], distance ∼4 cm) for 15 min. The medium was removed, cells were washed with PBS (2 × 500 μL), and 200 μL of lysis buffer containing Tris HCl (25 mM, pH 7.6), NaCl (150 mM), 1% NP40, 1% sodium deoxycholate, 0.1% SDS, and protease inhibitor cocktail (Sigma-Aldrich, 1:100 v/v) was added to each well. Complete lysis was observed by a microscope after 10 min at 4 °C with agitation. Each lysate was centrifuged at 4 °C for 5 min at 13,000 rpm, and the resulting supernatant was concentrated with a centrifugal filter (Amicon Ultra Centrifugal Filters 3K cutoff, Millipore), normalized to 1.0 mg/mL by the Bradford assay, and analyzed immediately or stored at −80 °C for subsequent analysis.
In a darkened (wrapped with aluminum foil) Eppendorf tube, each lysate (30 μL [30 μg]) was incubated with 10 μL of the freshly prepared “click” premix containing CuSO4 (5 mM), sodium ascorbate (5 mM), TBTA (200 μM), and N3–Alexa-647 (50 μM) were added to PBS (50 mM, pH 7.4). The corresponding final concentrations within the lysate click incubation were: CuSO4 (1.25 mM), sodium ascorbate (1.25 mM), TBTA (50 μM), and N3–Alexa-647 (12.5 μM). The mixture was vortexed briefly and incubated for 1.5 h at 37 °C in the dark. NuPAGE LDS sample loading buffer (4 × 13 μL) was added, and the mixture was denatured in boiling water for 10 min. SDS-PAGE was performed on Novex Bis-Tris gel 4–12% with MES SDS running buffer (90 V constant for 30 min followed by 100 V for 90 min; load volume = 25 μL). Protein standards that gave appropriate visible and fluorescent bands for our application included the BioRad Precision Plus All Blue Protein Standard and Novex Pre-Stained Protein Standard. In-gel fluorescence was monitored (excitation λ = 635 nm; emission λ = 670 nm) using a Typhoon 9400 (GE Healthcare) fluorimager. Densitometric analysis and image refinement were carried out as needed using ImageJ software (NIH, open source). The contrast and brightness of images were modified using ImageJ and/or Microsoft Word to enhance visualization for publication purposes.

## O=c1cc(COc2cc(Cl)cc(Cl)c2)[nH][nH]1 [P2]
  competitor to PRAPP ratio at complete disappearance of the band: 6
Scenario 1, n = 2, read-out: EC50 for the competition with PRAPP (25 kDa band intensity)
  EC50: 11.1 µM
